The values below come from ChEMBL document CHEMBL2073965, “Kinetic analysis of the primary active transport of conjugated metabolites across the bile canalicular membrane: comparative study of S-(2,4-dinitrophenyl)-glutathione and 6-hydroxy-5,7-dimethyl-2-methylamino-4-(3-pyridylmethyl)benzothiazole glucuronide” (J Pharmacol Exp Ther, 1997).

Holding throughout (type): functional, cell membranes, Sprague-Dawley, Bile canalicular membrane vesicle
In data set [1] the target is T1, ATP-binding cassette sub-family C member 2 (Rattus norvegicus, UniProt Q63120). Nature of the data set: TP_TRANSPORTER: inhibition of DNP-SG uptake in bile canalicular membrane vesicles from SD rat.
Data set [2] deals with T1, ATP-binding cassette sub-family C member 2. As to the kind of experiment: TP_TRANSPORTER: inhibition of DNP-SG uptake (DNP-SG: 1 uM, 4MUG: 500 uM) in bile canalicular membrane vesicles from SD rat.
Substrate in data set [3]: CNc1nc2c(Cc3cccnc3)c(C)c(O[C@@H]3O[C@H](C(=O)O)[C@@H](O)[C@H](O)[C@H]3O)c(C)c2s1
Nature of the data set: (§1) TP_TRANSPORTER: uptake in bile canalicular membrane vesicles from SD rat.

Substrate in data set [4]: N[C@@H](CCC(=O)N[C@H](CSc1ccc([N+](=O)[O-])cc1[N+](=O)[O-])C(=O)NCC(=O)O)C(=O)O
The description is as §1.

The Ki is a dissociation constant, usually derived from enzyme kinetics or from competition with a known ligand. A high value points to lower affinity. In the case of `CNc1nc2c(Cc3cccnc3)c(C)c(O[C@@H]3O[C@H](C(=O)O)[C@@H](O)[C@H](O)[C@H]3O)c(C)c2s1` [E3040 GLUCURONIDE], affinity in data set [1] was put at a Ki of 3.84 µM.

For the molecule `O=C(O)[C@H]1O[C@@H](OCc2cc(=O)oc3cc(O)ccc23)[C@H](O)[C@@H](O)[C@@H]1O`, the Activity entry in data set [2] is “inhibitor [+]”.

B1: ATP-binding cassette sub-family C member 2 (Rattus norvegicus) (protein)
chain: MDKFCNSTFWDLSLLESPEADLPLCFEQTVLVWIPLGFLWLLAPWQLYSVYRSRTKRSSITKFYLAKQVFVVFLLILAAIDLSLALTEDTGQATVPPVRYTNPILYLCTWLLVLAVQHSRQWCVRKNSWFLSLFWILSVLCGVFQFQTLIRALLKDSKSNMAYSYLFFVSYGFQIVLLILTAFSGPSDSTQTPSVTASFLSSITFSWYDRTVLKGYKHPLTLEDVWDIDEGFKTRSVTSKFEAAMTKDLQKARQAFQRRLQKSQRKPEATLHGLNKKQSQSQDVLVLEEAKKKSEKTTKDYPKSWLIKSLFKTFHVVILKSFILKLIHDLLVFLNPQLLKLLIGFVKSSNSYVWFGYICAILMFAVTLIQSFCLQSYFQHCFVLGMCVRTTVMSSIYKKALTLSNLARKQYTIGETVNLMSVDSQKLMDATNYMQLVWSSVIQITLSIFFLWRELGPSILAGVGVMVLLIPVNGVLATKIRNIQVQNMKNKDKRLKIMNEILSGIKILKYFAWEPSFQEQVQGIRKKELKNLLRFGQLQSLLIFILQITPILVSVVTFSVYVLVDSANVLNAEKAFTSITLFNILRFPLSMLPMVTSSILQASVSVDRLERYLGGDDLDTSAIRRVSNFDKAVKFSEASFTWDPDLEATIQDVNLDIKPGQLVAVVGTVGSGKSSLVSAMLGEMENVHGHITIQGSTAYVPQQSWIQNGTIKDNILFGSEYNEKKYQQVLKACALLPDLEILPGGDMAEIGEKGINLSGGQKQRVSLARAAYQDADIYILDDPLSAVDAHVGKHIFNKVVGPNGLLAGKTRIFVTHGIHFLPQVDEIVVLGKGTILEKGSYRDLLDKKGVFARNWKTFMKHSGPEGEATVNNDSEAEDDDDGLIPTMEEIPEDAASLAMRRENSLRRTLSRSSRSSSRRGKSLKNSLKIKNVNVLKEKEKEVEGQKLIKKEFVETGKVKFSIYLKYLQAVGWWSILFIILFYGLNNVAFIGSNLWLSAWTSDSDNLNGTNNSSSHRDMRIGVFGALGLAQGICLLISTLWSIYACRNASKALHGQLLTNILRAPMRFFDTTPTGRIVNRFSGDISTVDDLLPQTLRSWMMCFFGIAGTLVMICMATPVFAIIIIPLSILYISVQVFYVATSRQLRRLDSVTKSPIYSHFSETVTGLPIIRAFEHQQRFLAWNEKQIDINQKCVFSWITSNRWLAIRLELVGNLVVFCSALLLVIYRKTLTGDVVGFVLSNALNITQTLNWLVRMTSEAETNIVAVERISEYINVENEAPWVTDKRPPADWPRHGEIQFNNYQVRYRPELDLVLKGITCNIKSGEKVGVVGRTGAGKSSLTNCLFRILESAGGQIIIDGIDVASIGLHDLRERLTIIPQDPILFSGSLRMNLDPFNKYSDEEVWRALELAHLRSFVSGLQLGLLSEVTEGGDNLSIGQRQLLCLGRAVLRKSKILVLDEATAAVDLETDSLIQTTIRKEFSQCTVITIAHRLHTIMDSDKIMVLDNGKIVEYGSPEELLSNRGSFYLMAKEAGIENVNHTEL
For orientation: Km means the substrate concentration at which the rate is half of its maximum. For B1, the Km in data set [3] turned out to be 5.7 µM; in data set [4], 17.6 µM.
